For data set [1], the target named is T1, DnaJB4 (Homo sapiens, UniProt Q9UDY4).
T1 construct: 6-His with TEV-cleavable linker (N, cleaved yes); made in house; host or cells: Escherichia coli BL21 (DE3) Rosetta
Description: Differential scanning fluorimetry of DnaJB4 with chaperone peptides. Particulars: 5 μM DnaJB4, 100 μM peptide; for DnaJB4 apparent melting temperature (Tm,app): 5× Sypro Orange, JDP binding buffer, mean ± SD (n = 4), without peptide 57 ± 0.06 °C. It counts as binding. The method, then: DSF was performed with a 15-μl assay volume in 384-well Axygen quantitative PCR plates (Fisher Scientific) on a qTower ([3]) real-time PCR thermal cycler (Analytik Jena). Fluorescence intensity readings were taken over 70 cycles in “up-down” mode, where reactions were heated to desired temperature and then cooled to 25 °C before reading. The temperature was increased 1 °C per cycle. Each well contained 5 μM DnaJB4, 5 × Sypro Orange dye (Thermo Fisher), and 100 μM of peptide in JDP binding buffer. Fluorescence intensity data were truncated between 45 and 70 °C, plotted relative to temperature, and fit to a Boltzmann Sigmoid in Prism 9.0 (GraphPad). DnaJB4 apparent melting temp (Tm,app) was calculated based on the following equation: Y = Bottom + ((Top-Bottom)/(1 + exp(Tm-T/Slope))).

The target in data set [2] is T1, DnaJB4. Description: DnaJB4 FP competition (displacement of Hsp72 tracer). It is filed as binding. Conditions: 100 μM peptide, 5 μM DnaJB4, 20 nM Hsp72 tracer, 30 min room temperature; for % tracer displacement: relative to DMSO control, mean ± SD (n = 4). The protocol: (§1) All FP experiments were performed in 384-well, black, low-volume, round-bottom plates at a final assay volume of 18 μl (Corning 4511). Polarization values in millipolarization units (mP) were measured at an excitation wavelength of 485 nm and an emission wavelength of 525 nm, with 100 flashes per read using a Spectramax M5 plate reader (Molecular Devices). All experiments were performed 2 times in quadruplicate. Experimental data were analyzed using GraphPad Prism 9. Saturation binding data were background subtracted, and curves were fit using the model [Agonist] versus response (three parameters). For competition experiments, data were background subtracted to tracer alone and normalized to DMSO control to determine relative tracer displacement.
Unlabeled peptides were assessed for the ability to compete with the Hsp72 tracer. Briefly, 100 μM peptides were incubated with 5 μM DnaJB4 and 20 nM Hsp72 tracer in JDP binding buffer (see above). The plate was covered from light and allowed to incubate at room temperature for 30 min prior to reading.

The target of data set [3] is T2, CHIP (Homo sapiens, UniProt Q9UNE7).
T2 construct: 6-His with TEV-cleavable linker (N, cleaved yes); made in house; host or cells: E. coli BL21(DE3)
T2 sequence (Q9UNE7 1-303): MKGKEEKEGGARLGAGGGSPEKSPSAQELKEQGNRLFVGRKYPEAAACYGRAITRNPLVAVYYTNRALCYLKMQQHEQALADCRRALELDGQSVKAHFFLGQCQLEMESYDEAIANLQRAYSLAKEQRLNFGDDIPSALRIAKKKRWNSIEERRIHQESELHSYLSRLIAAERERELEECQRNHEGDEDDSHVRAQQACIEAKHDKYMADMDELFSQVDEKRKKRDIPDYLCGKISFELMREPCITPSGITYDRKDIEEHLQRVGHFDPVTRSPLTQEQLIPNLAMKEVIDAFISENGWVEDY
Description: CHIP FP competition (displacement of Hsp72 tracer). It is filed as binding. Particulars: 100 μM peptide, 1.58 μM CHIP, 20 nM Hsp72 tracer, 30 min room temperature. The method, then: as §1
Mixtures of 1.58 μM CHIP and 20 nM Hsp72 tracer were incubated with 100 μM unlabeled competitor peptides in CHIP FP assay buffer (50 mM Hepes pH 7.4, 50 mM KCl, 0.01% Triton X-100). The plate was covered from light and allowed to incubate at room temperature for 30 min prior to reading.

Data set [4] concerns Hsp72–DnaJB4 complex. Description: Luciferase refolding by Hsp72/DnaJB4 in the presence of TPR cochaperones. It is filed as biochemical. Conditions: 1 μM Hsp72, 100 nM denatured luciferase, 120 nM DnaJB4; CHIP titration or 10 μM TPR protein; 1 h at 37 °C. The protocol:
(§2) Experiments were performed as described ([14]). Briefly, Renilla luciferase (Promega) was denatured in 8 M GdnHCl for 2 h at room temperature. Hsp72 (1 μM) and denatured luciferase (100 nM) were diluted into a working concentration in buffer containing an ATP regenerating system (23 mM Hepes, 120 mM KAc, 1.2 mM MgAc, 15 mM DTT, 61 mM creatine phosphate, 35 units/ml creatine kinase, and 5 ng/μl bovine serum albumin, pH 7.4). A titration series of DnaJB4 was added, and the reaction was initiated with the addition of 2.5 mM ATP. For competition assays with DnaJB4, complexes of Hsp72 (1 μM), denatured luciferase (100 nM), and DnaJB4 (120 nM) were incubated with either a titration of CHIP or 10 μM of indicated TPR protein. In all cases, the assay was allowed to incubate for 1 h at 37 °C in white, 96-well flat-bottom plates (Corning 3990). Luminescence was measured using the SteadyGlo luminescence reagent (Promega), and percent refolded luciferase was calculated using a standard curve of 100 to 0 nM native luciferase.

Data set [5] concerns denatured Renilla luciferase. Description: Luciferase refolding by Hsp72 variants in the presence of DnaJB4. It counts as biochemical. Conditions: 1 μM Hsp72, 100 nM denatured luciferase, DnaJB4 titration, 1 h at 37 °C. The protocol: as §2
The test system of data set [6] is Hsp72 ATPase activity. Description: Intrinsic ATPase activity of Hsp72 variants (malachite green). It counts as biochemical. Conditions: 1 μM Hsp72, 2.5 mM ATP, 1 h at 37 °C, mean ± SD (n = 3). The method, then: ATPase assays were carried out using the malachite green assay as described ([14], [83]). In brief, 1 μM Hsp72 and various concentrations of DnaJB4 were added to clear 96-well plates, and the reactions were initiated by addition of 2.5 mM ATP. Reactions were allowed to proceed for 1 h at 37 °C, after which they were developed using malachite green reagent and quenched with sodium citrate. Plate absorbance was measured at 620 nm, and a standard curve of sodium phosphate was used to convert the absorbance values to pmol ATP/μM Hsp72/min. Vmax and Km, app were derived as fit parameters to a modified Michaelis–Menten model (ATPase rate=Vmax∗[DnaJB4]/(Km, app+[DnaJB4])) where Vmax reflects the maximal increased ATP hydrolysis conferred by DnaJB4 binding and Km,app represents the half-maximal concentration of DnaJB4 binding to and stimulating the ATPase activity of Hsp72.

Data set [7] concerns denatured Renilla luciferase. Description: Luciferase refolding by Hsp72 variants in the presence of DnaJA2. It is filed as biochemical. Particulars: 1 μM Hsp72, 100 nM denatured luciferase, 1 h at 37 °C.

T1 sequence (Q9UDY4 whole entry): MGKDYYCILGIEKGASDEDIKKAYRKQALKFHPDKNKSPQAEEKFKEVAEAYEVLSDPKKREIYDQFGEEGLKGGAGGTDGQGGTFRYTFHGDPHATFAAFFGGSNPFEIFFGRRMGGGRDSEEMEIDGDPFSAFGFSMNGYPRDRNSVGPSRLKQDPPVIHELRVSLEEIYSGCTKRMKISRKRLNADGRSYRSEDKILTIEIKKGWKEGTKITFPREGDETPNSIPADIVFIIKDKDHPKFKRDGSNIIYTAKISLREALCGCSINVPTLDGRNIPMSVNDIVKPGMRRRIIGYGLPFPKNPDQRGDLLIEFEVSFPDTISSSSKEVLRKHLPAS

Turning to “GSGPTIEEVD [Hsp72, unlabeled, N-acetylated 10-mer peptide corresponding to the C terminus of Hsp72/HSPA1A]”, in data set [1], the “DnaJB4 apparent melting temperature (Tm,app)” value was 58 ± 0.21 °C. Moreover, in data set [1] (versus no peptide), the “positive shift in the melt curves” value lay within 1 to 2 °C. Besides, the “% tracer displacement” value in data set [2] was found to be 40.2 ± 4.6%. On to “GSGPTIEEVD-CONH2 [peptide with an amidated Hsp72 C terminus]”, for which the “binding to CHIP in FP competition relative to WT Hsp72 peptide” value in data set [3] was “carboxylate was important for binding to CHIP”. The “binding to DnaJB4 in FP competition relative to WT Hsp72 peptide” value in data set [2] is on record as “drastically reduced binding”. Turning to “HOP: Hsc70 organizing protein, TPR cochaperone”, the “effect on client (luciferase) refolding by Hsp72–DnaJB4” value in data set [4] is “suppressed luciferase refolding”. For “Hsp72 I637A: full-length Hsp72 with point mutation of the critical P5 isoleucine residue”, in data set [5], the “ability to coordinate with DnaJB4 in luciferase refolding” value is on record as “nearly completely impaired”. Also, the “intrinsic ATPase activity” value in data set [6] was 15.8 ± 3.9 pmol ATP/min. Also, the “luciferase refolding in the presence of DnaJA2” value in data set [7] is “comparably with WT”. With “Hsp72 ΔEEVD: mutant of full-length Hsp72 in which the EEVD motif was deleted”, the “ability to coordinate with DnaJB4 in luciferase refolding” value in data set [5] is given as “nearly completely impaired”. Besides, the “intrinsic ATPase activity” value in data set [6] came to 4.6 ± 1.9 pmol ATP/min. For “Hsp90β: unlabeled, N-acetylated 10-mer peptide corresponding to the C terminus of Hsp90β”, the “DnaJB4 apparent melting temperature (Tm,app)” value in data set [1] worked out at 57 ± 0.20 °C. Also, the “% tracer displacement” value in data set [2] is given as −1.3 ± 2.2%.

As for “Hsp90⍺: unlabeled, N-acetylated 10-mer peptide corresponding to the C terminus of Hsp90⍺”, in data set [1], the “DnaJB4 apparent melting temperature (Tm,app)” value was 57 ± 0.15 °C. Moreover, the “% tracer displacement” value in data set [2] is on record as −7.7 ± 1.5%. Take IEEVD: the “binding to DnaJB4 in FP competition relative to WT Hsp72 peptide” value in data set [2] was “further worsened it”. In the case of TIEEVD, the “binding to DnaJB4 in FP competition relative to WT Hsp72 peptide” value in data set [2] is listed as “significantly weakened affinity”. As to “WT Hsp72: full-length recombinant Hsp72/HSPA1A”, in data set [6], the “intrinsic ATPase activity” value is 10.9 ± 2.8 pmol ATP/min.

These data come from publication PMC8913300, “Two distinct classes of cochaperones compete for the EEVD motif in heat shock protein 70 to tune its chaperone activities” (The Journal of Biological Chemistry, 2022).
